Test results published in ChEMBL document CHEMBL1201862, “PubChem BioAssay data set” (2004).
Calls of active or inactive are those of the source.

Assays:
[1] = biological target: Glucose-6-phosphate 1-dehydrogenase (Homo sapiens, UniProt P11413); test: inhibition of Homo sapiens G6PD, dose series – biochemical, fluorescence, selectivity assay for P. falciparum G6PD inhibitor project, dose response (AID 504792); format: functional
[2] = biological target: T1, Alkaline phosphatase, tissue-nonspecific isozyme (Homo sapiens, UniProt P05186); test: potency against alkaline phosphatase TNAP – biochemical, luminescent, dose response, SAR follow-up (AID 1056)
T1 sequence (P05186 whole entry): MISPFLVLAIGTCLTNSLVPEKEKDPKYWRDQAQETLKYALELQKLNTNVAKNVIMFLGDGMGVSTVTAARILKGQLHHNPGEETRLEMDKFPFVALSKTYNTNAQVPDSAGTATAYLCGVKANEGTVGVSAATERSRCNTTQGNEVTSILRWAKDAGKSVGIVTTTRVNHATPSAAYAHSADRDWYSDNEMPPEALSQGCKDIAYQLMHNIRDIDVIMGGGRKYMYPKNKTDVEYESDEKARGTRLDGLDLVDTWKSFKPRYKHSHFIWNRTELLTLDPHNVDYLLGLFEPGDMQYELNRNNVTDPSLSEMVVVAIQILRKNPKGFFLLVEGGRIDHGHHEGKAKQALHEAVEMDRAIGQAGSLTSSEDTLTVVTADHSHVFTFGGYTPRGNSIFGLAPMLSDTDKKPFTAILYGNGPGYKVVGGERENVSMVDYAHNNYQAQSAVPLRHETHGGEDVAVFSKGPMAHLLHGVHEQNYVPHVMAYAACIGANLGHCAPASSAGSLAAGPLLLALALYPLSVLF

[3] = biological target: Glyceraldehyde-3-phosphate dehydrogenase (Homo sapiens, UniProt P04406)
[4] = biological target: T2, Heat shock factor protein 1 (Mus musculus, UniProt P38532); test: decrease of HSF1-responsive luciferase luminescence – cell-based, NIH3T3, dose retest, confirmation (AID 2382); format: functional;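 further: NIH3T3 fibroblasts with HSF1-driven luciferase reporter stressed by proteasome inhibitor MG132; luminescence from HSF1-driven luciferase expression after 8 hours of MG132 stress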
T2 sequence (P38532 whole entry): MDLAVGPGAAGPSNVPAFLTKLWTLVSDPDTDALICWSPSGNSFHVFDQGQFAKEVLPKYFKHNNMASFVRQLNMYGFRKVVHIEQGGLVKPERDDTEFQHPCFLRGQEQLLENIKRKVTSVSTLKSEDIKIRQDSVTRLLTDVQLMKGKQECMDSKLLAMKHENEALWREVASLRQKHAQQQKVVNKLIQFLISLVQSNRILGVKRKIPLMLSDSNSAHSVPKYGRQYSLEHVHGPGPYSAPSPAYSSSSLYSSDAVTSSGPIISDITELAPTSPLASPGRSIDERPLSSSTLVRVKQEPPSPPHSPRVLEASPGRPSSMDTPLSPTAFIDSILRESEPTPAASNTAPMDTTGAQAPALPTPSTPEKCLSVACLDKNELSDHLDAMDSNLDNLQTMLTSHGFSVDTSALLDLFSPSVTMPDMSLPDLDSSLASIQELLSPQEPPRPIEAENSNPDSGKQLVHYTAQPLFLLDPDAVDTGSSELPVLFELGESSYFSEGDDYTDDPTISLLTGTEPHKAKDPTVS

HEK293 = test: EBV LMP1 TES2 canonical NF-kB signalling blockers – cell-based, HEK293, luciferase, cherry-pick, dose response (AID 588343); format: functional; conditions: Homo sapiens
[5] = biological target: T3, Endoribonuclease toxin MazF (Escherichia coli K-12, UniProt P0AE70); test: substrate-only fluorescence increase artefacts – biochemical, single-stranded RNase substrate, counter-screen for MazEF activator project, dose response (AID 588502); format: functional
T3 sequence (P0AE70 whole entry): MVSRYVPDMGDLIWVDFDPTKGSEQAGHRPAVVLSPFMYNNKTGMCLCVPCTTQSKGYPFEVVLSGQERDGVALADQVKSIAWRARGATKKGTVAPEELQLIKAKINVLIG

[6] = biological target: T3, Endoribonuclease toxin MazF; test: activation of MazEF endoribonuclease cleavage – biochemical, fluorescence, single-stranded RNA substrate, uHTS hits, dose response (AID 588481); format: functional
[7] = biological target: T4, Rac GTPase-activating protein 1 (Homo sapiens, UniProt Q9H0H5); test: blockers of MgcRacGAP-driven Rac1 GTP hydrolysis – biochemical, ADP Hunter fluorescence, primary and confirmatory, confirmation (AID 624330); format: functional
T4 sequence (Q9H0H5 whole entry): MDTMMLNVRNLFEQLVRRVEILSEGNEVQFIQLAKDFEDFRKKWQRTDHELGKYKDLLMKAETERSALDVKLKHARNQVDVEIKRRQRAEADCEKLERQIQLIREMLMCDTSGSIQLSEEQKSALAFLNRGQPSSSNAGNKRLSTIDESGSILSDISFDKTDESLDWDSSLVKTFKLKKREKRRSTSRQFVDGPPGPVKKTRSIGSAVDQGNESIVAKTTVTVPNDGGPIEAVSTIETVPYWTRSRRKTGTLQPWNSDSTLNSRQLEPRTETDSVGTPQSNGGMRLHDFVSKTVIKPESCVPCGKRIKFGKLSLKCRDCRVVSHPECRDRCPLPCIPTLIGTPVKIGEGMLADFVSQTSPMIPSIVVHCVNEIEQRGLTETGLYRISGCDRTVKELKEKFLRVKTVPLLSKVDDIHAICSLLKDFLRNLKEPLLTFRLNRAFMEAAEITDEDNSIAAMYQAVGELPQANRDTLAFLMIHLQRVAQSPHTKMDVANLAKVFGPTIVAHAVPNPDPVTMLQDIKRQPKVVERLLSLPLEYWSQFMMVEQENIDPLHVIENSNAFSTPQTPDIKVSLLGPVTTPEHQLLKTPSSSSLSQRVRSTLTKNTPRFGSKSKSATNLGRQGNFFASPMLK

[8] = NIH3T3 cell viability loss – ATP luminescence, mouse fibroblasts, counter-screen, dose response (AID 2010); format: functional, cell-based;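 further: cells exposed to compound for about 90 hours before reading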
Genome polyprotein = Genome polyprotein (dengue virus type 2, UniProt P29990); test: flavivirus cap methylation enzyme inhibition – biochemical, confirmation dose response, primary screen (AID 588689); format: functional
[9] = biological target: Eukaryotic translation initiation factor 4E (Mus musculus, UniProt P63073); test: blockers of eIF4G binding by eIF4E – biochemical, TR-FRET, dose response (AID 855); format: functional;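 further: potency for disrupting eIF4E binding to eIF4GI seen as loss of FRET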
[10] = biological target: T5, Mannose-6-phosphate isomerase (Homo sapiens, UniProt P34949); test: MPI inhibition at elevated mannose 6-phosphate – biochemical, fluorescence intensity, high mannose 6-phosphate, primary screen (AID 1220)
T5 sequence (P34949 whole entry): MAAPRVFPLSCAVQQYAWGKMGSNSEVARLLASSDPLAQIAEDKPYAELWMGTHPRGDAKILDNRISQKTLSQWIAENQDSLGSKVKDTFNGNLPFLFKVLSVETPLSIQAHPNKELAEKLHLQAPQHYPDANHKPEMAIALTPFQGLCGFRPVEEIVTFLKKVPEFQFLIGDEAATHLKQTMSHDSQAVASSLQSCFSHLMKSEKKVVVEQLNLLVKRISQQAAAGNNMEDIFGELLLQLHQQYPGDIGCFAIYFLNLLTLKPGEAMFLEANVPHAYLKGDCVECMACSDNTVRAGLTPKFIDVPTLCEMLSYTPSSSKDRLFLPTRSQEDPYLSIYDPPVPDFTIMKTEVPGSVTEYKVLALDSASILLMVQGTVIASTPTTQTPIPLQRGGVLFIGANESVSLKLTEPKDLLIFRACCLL

[11] = Trypanosoma cruzi growth suppression in host cells – NIH3T3 host cells, beta-gal luminescence, confirmation (AID 2044); format: functional, cell-based;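 further: intracellular parasites grown in NIH/3T3 mouse fibroblasts as host cells; luminescent beta-galactosidase reporter signal from transgenic T. cruzi replicating inside host cells; inhibitors lower the luminescence signal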

Glyceraldehyde-3-phosphate dehydrogenase, sequence (P04406 whole entry): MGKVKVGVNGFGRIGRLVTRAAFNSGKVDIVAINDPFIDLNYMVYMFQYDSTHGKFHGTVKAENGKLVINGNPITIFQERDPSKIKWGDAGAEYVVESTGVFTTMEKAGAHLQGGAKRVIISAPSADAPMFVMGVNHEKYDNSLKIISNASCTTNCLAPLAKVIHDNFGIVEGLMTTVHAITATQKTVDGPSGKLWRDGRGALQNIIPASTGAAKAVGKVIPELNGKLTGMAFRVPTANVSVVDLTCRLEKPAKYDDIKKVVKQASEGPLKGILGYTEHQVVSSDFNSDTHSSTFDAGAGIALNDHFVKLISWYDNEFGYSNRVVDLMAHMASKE
Glucose-6-phosphate 1-dehydrogenase, sequence (P11413 whole entry): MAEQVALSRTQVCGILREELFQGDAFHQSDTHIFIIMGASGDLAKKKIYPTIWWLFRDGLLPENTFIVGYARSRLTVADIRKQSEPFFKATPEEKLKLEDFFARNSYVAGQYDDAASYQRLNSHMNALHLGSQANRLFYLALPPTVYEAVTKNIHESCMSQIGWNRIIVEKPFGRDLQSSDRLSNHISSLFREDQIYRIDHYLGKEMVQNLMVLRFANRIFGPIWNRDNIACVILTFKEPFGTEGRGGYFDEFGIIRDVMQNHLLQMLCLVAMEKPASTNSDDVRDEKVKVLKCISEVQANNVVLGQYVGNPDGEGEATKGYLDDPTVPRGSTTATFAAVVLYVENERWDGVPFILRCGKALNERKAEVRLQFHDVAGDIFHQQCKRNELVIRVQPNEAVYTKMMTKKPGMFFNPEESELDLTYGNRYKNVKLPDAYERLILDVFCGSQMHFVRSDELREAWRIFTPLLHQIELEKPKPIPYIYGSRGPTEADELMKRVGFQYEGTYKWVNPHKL
Genome polyprotein, sequence (P29990 2492-3391 limits assumed): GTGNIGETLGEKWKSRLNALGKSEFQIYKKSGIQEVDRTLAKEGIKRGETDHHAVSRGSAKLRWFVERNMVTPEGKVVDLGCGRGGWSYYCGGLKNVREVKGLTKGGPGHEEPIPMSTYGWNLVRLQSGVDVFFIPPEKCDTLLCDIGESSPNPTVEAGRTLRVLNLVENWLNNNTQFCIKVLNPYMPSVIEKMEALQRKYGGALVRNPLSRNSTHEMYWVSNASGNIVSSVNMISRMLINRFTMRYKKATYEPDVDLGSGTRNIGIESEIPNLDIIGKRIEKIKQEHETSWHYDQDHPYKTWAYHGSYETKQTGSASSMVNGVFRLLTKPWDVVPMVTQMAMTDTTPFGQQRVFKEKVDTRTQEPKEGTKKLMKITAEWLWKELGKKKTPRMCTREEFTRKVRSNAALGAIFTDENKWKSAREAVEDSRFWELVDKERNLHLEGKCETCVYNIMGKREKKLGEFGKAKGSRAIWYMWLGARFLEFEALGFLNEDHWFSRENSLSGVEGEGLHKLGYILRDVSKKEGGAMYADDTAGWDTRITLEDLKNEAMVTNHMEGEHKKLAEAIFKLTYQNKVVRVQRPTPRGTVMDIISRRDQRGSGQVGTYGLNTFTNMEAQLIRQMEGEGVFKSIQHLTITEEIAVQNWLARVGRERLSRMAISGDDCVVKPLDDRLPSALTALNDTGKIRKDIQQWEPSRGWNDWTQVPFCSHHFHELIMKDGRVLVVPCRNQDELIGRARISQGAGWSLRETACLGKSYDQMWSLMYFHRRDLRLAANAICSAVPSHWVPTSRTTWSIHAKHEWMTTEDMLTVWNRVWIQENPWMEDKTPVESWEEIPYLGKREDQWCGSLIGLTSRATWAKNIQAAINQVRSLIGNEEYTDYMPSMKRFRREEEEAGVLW
Eukaryotic translation initiation factor 4E, sequence (P63073 whole entry): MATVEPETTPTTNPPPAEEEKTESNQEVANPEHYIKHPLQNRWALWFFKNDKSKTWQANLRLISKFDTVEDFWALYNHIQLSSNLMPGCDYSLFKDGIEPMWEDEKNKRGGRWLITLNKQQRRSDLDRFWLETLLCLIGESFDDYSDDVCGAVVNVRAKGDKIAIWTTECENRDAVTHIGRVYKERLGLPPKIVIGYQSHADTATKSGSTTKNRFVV

## CCc1c(C#N)c(S)nc(C)c1C(=O)Nc1ccccc1
[1]
  IC50: > 80 µM (inactive)

## O=C1C2CC=C(Cl)CC2C(=O)N1c1nnc[nH]1 (stereo not given)
[2]
  IC50: > 100 µM (inactive)
[3]
  IC50: > 100 µM (not active)

## O=C1c2ccccc2C(=O)C1c1nc2ccccc2[nH]1
[2]
  IC50: > 100 µM (inactive)
[3]
  IC50: > 100 µM (not active)

## Cc1cc(/C=C2\Cc3ccccc3C2=O)c(C)n1-c1ccccc1
[4]
  EC50: < 0.16 µM (active)
HEK293
  AC50: 1.87 µM (active)

## COc1c(S(=O)(=O)Nc2cccnc2)ccc(Cl)c1Cl
[2]
  IC50: > 100 µM (inactive)

## Cc1ccc(-c2ccccc2NC(=O)C[S+]([O-])CC(=O)Nc2ccc(C)c(Cl)c2)o1 (stereo not given)
[5]
  EC50: 41.5 µM (inactive)
[6]
  EC50: 34.1 µM (inactive)

## COC(=O)CCNc1ccc2c(c1)OCCO2
[4]
  EC50: 1.73 µM (active)
HEK293
  AC50: 1.9 µM (active)
[7]
  IC50: 251 µM (active)

## COC(=O)c1nn2c(C(F)(F)F)cc(-c3ccc(Br)o3)nc2c1Br
[5]
  EC50: 30.5 µM (inactive)
[6]
  EC50: > 99 µM (inactive)

## CC(C)(C)c1ccc(S(=O)(=O)Nc2cnc3ccccc3c2)cc1
[2]
  IC50: > 100 µM (inactive)
[3]
  IC50: > 100 µM (not active)

## COc1ccc(NS(=O)(=O)c2ccc(OC)c(OC)c2)cn1
[2]
  IC50: > 100 µM (inactive)
[3]
  IC50: > 100 µM (not active)

## CC(=O)CSc1nc2cc3c(cc2cc1C#N)OCCO3
[5]
  EC50: 29.5 µM (inactive)
[6]
  EC50: > 99 µM (inactive)

## O=C(CSc1nc2cc(Cl)ccc2[nH]1)NC1CCCc2ccccc21 (stereo not given)
[1]
  IC50: > 80 µM (inactive)

## CSc1ccc(S(=O)(=O)NCC(=O)OCCOc2ccccc2)cc1[N+](=O)[O-]
[5]
  EC50: > 99 µM (inactive)
[6]
  EC50: 25.8 µM (inactive)

## Fc1cccc(Cl)c1CNc1ccc(N2CCCC2)cc1
[1]
  IC50: > 80 µM (inactive)
[8]
  EC50: > 60 µM (not active)
Genome polyprotein
  IC50: 35.6 µM (active)
[9]
  IC50: 50 µM (inactive)
[10]
  IC50: 30.5 µM (active)
[11]
  EC50: 2.52 µM (active)
